Values after ≈ are worked out from the molar mass of the structure shown.
Columns and labels:
[1] = Impurities from riboflavin tetrabutyrate in organic solvents; format: physicochemical; conditions: 25° C.; for Impur. 0 hr / Impur. 1 Month / Impur. 14 Days: RTB
Method: The impurities present in MCT, F6H8, or combinations, with riboflavin tetrabutyrate (RTB), at 25° C. was investigated. Using similar sample analysis methods described in Examples 1a-1c, the impurities were determined.

[2] = Stability of riboflavin tetrabutyrate in organic solvents; format: physicochemical; conditions: RTB
Text: The stability of riboflavin tetrabutyrate (RTB) in various solvents was investigated. Using similar sample analysis methods described in Examples 1a-1c, the stability of RTB in formulations of MCT, F6H8, and combinations were monitored at various temperatures.

porcine corneas = experiment: Ex vivo RTB-UVA crosslinking, static stress-strain, without de-epithelialization; conditions: intact porcine eyes, corneas not de-epithelialized; RTB formulations in MCT or F6H8; UVA radiation
Method: Starting 5 minutes before the treatment, 0.1% riboflavin tetrabutyrate (RTB) photosensitizer solution (10 mg riboflavin tetrabutyrate in 10 mL MCT or F6H8 or a combination thereof) is dropped on the treated strips and MCT or F6H8 or combination solution is dropped on the control strips at 5-minute intervals. Ultraviolet A irradiation (370 nm) is applied using 2 double UVA diodes (Roithner Lasertechnik) with an irradiance of 3 mW/cm2 at a distance of 1.0 cm from the cornea for 30 minutes. This is equal to a dose of 5.4 J/cm^2. The parameters of exposure are chosen according to the treatment procedure used in keratoconus patients. Three 1.3 V accumulators are used as a power generator. […]
The porcine corneal strips are clamped horizontally at a distance of 8.0 mm between the jaws of a commercially available microcomputer-controlled biomaterial tester (Minimat, Rheometric Scientific GmbH. To include the physiological stress range, a prestress of 5×10^3 Pa (1 Pa=1 N/m2) is used, which requires a force of 20 mN in porcine corneas. The strain is then increased linearly with a velocity of 1.5 mm min-1, and the stress is measured up to 2×10^5 Pa. The stress-strain values are fitted by an exponential function σ=A exp (BX) using the SPSS-calculation program (SPSS GmbH Software, Munich). […]

[3] = Saturated aqueous solubility of RTB in PBS with or without HP-β-CD, HPLC; format: physicochemical
Method: Solubility of riboflavin tetrabutyrate (RTB) was tested in PBS solution, with or without 10% hydroxypropyl-beta-cyclodextrin (HP-β-CD) as solubilizer, at varying pH. For each formulation, 5 mg of RTB was added to 5 mL of pH-adjusted PBS containing 10% HP-β-CD at 25° C., and mixed well. Solubility was analyzed as in Example 1a.

[4] = Sample YB1, 0.2%, MCT 100%, F6H8 0%
[5] = Sample YB2, 0.1%, MCT 70%, F6H8 30%
[6] = Sample YB3, 0.1%, MCT 50%, F6H8 50%
[7] = Sample X1, 0.2%, MCT 100%, F6H8 0%, 2-8° C.
[8] = Sample X2, 0.2%, MCT 100%, F6H8 0%, 25° C.
[9] = Sample X3, 0.2%, MCT 100%, F6H8 0%, 40° C.
[10] = Sample X4, 0.1%, MCT 70%, F6H8 30%, 2-8° C.
[11] = Sample X5, 0.1%, MCT 70%, F6H8 30%, 25° C.
[12] = Sample X6, 0.1%, MCT 70%, F6H8 30%, 40° C.
[13] = Sample X7, 0.1%, MCT 50%, F6H8 50%, 2-8° C.
[14] = Sample X8, 0.1%, MCT 50%, F6H8 50%, 25° C.
[15] = Sample X9, 0.1%, MCT 50%, F6H8 50%, 40° C.

CCCC(=O)OC[C@@H](OC(=O)CCC)[C@@H](OC(=O)CCC)[C@H](Cn1c2nc(=O)[nH]c(=O)c-2nc2cc(C)c(C)cc21)OC(=O)CCC [RTB, (2R,3S,4S)-5-(7,8-dimethyl-2,4-dioxo-3,4-dihydrobenzo[g]pteridin-10(2H)-yl) pentane-1,2,3,4-tetrayl tetrabutyrate]
RTB 0 hr [1, 4]: 98.76% | RTB 1 Month [1, 4]: 98.71% | RTB 14 Days [1, 4]: 98.76% | Impur. 0 hr [1, 4]: 1.16% | Impur. 1 Month [1, 4]: 1.15% | Impur. 14 Days [1, 4]: 1.16% | RTB 0 hr [1, 5]: 98.85% | RTB 1 Month [1, 5]: 99.05% | RTB 14 Days [1, 5]: 98.94% | Impur. 0 hr [1, 5]: 1.14% | Impur. 1 Month [1, 5]: 0.95% | Impur. 14 Days [1, 5]: 1.06% | RTB 0 hr [1, 6]: 98.87% | RTB 1 Month [1, 6]: 98.99% | RTB 14 Days [1, 6]: 98.92% | Impur. 0 hr [1, 6]: 1.13% | Impur. 1 Month [1, 6]: 1.02% | Impur. 14 Days [1, 6]: 1.07% | Appearance (clear/precip.) 0 hr [2, 7]: clear | Conc. 0 hr [2, 7]: 2.055, mg/mL | Appearance (clear/precip.) 1 Month [2, 7]: clear | Conc. 1 Month [2, 7]: 1.832, mg/mL | Appearance (clear/precip.) 14 days [2, 7]: clear | Conc. 14 days [2, 7]: 1.837, mg/mL | Appearance (clear/precip.) 0 hr [2, 8]: clear | Conc. 0 hr [2, 8]: 2.055, mg/mL | Appearance (clear/precip.) 1 Month [2, 8]: clear | Conc. 1 Month [2, 8]: 1.817, mg/mL | Appearance (clear/precip.) 14 days [2, 8]: clear | Conc. 14 days [2, 8]: 1.888, mg/mL | Appearance (clear/precip.) 0 hr [2, 9]: clear | Conc. 0 hr [2, 9]: 2.055, mg/mL | Appearance (clear/precip.) 1 Month [2, 9]: clear | Conc. 1 Month [2, 9]: 1.833, mg/mL | Appearance (clear/precip.) 14 days [2, 9]: clear | Conc. 14 days [2, 9]: 1.958, mg/mL | Appearance (clear/precip.) 0 hr [2, 10]: clear | Conc. 0 hr [2, 10]: 1.077, mg/mL | Appearance (clear/precip.) 1 Month [2, 10]: clear | Conc. 1 Month [2, 10]: 0.960, mg/mL | Appearance (clear/precip.) 14 days [2, 10]: clear | Conc. 14 days [2, 10]: 1.015, mg/mL | Appearance (clear/precip.) 0 hr [2, 11]: clear | Conc. 0 hr [2, 11]: 1.077, mg/mL | Appearance (clear/precip.) 1 Month [2, 11]: clear | Conc. 1 Month [2, 11]: 0.953, mg/mL | Appearance (clear/precip.) 14 days [2, 11]: clear | Conc. 14 days [2, 11]: 1.012, mg/mL | Appearance (clear/precip.) 0 hr [2, 12]: clear | Conc. 0 hr [2, 12]: 1.077, mg/mL | Appearance (clear/precip.) 1 Month [2, 12]: clear | Conc. 1 Month [2, 12]: 0.962, mg/mL | Appearance (clear/precip.) 14 days [2, 12]: clear | Conc. 14 days [2, 12]: 1.027, mg/mL | Appearance (clear/precip.) 0 hr [2, 13]: clear | Conc. 0 hr [2, 13]: 1.123, mg/mL | Appearance (clear/precip.) 1 Month [2, 13]: precip. | Conc. 1 Month [2, 13]: 0.848, mg/mL | Appearance (clear/precip.) 14 days [2, 13]: precip. | Conc. 14 days [2, 13]: 0.976, mg/mL | Appearance (clear/precip.) 0 hr [2, 14]: clear | Conc. 0 hr [2, 14]: 1.123, mg/mL | Appearance (clear/precip.) 1 Month [2, 14]: clear | Conc. 1 Month [2, 14]: 0.993, mg/mL | Appearance (clear/precip.) 14 days [2, 14]: clear | Conc. 14 days [2, 14]: 1.056, mg/mL | Appearance (clear/precip.) 0 hr [2, 15]: clear | Conc. 0 hr [2, 15]: 1.123, mg/mL | Appearance (clear/precip.) 1 Month [2, 15]: clear | Conc. 1 Month [2, 15]: 0.984, mg/mL | Appearance (clear/precip.) 14 days [2, 15]: clear | Conc. 14 days [2, 15]: 1.054, mg/mL | stress using strain, treated vs untreated corneas (porcine corneas): greater in the treated corneas | Solubility ([3]; Sample C1, 25° C., HP-β-CD 10%, pH 5.0): 8 ng/mL (≈ 12.2 nM) | Solubility ([3]; Sample C2, 25° C., HP-β-CD 10%, pH 5.5): 3 ng/mL (≈ 4.57 nM) | Solubility ([3]; Sample C3, 25° C., HP-β-CD 10%, pH 6.0): 4 ng/mL (≈ 6.09 nM) | Solubility ([3]; Sample C4, 25° C., without HP-β-CD, pH 5.0): 8 ng/mL (≈ 12.2 nM) | Solubility ([3]; Sample C5, 25° C., without HP-β-CD, pH 5.5): 1 ng/mL (≈ 1.52 nM) | Solubility ([3]; Sample C6, 25° C., without HP-β-CD, pH 6.0): 2 ng/mL (≈ 3.05 nM)
